Test: Human HepG2 cell viability assay in 384 well format
Assay type: toxicity, cell-based
Parameters: dose 125 nL, time 70.5 hour; cytotoxicity at 70.5 h: concentration not given beside the values
Settings: HepG2 cells, read-out: Inhibition

Point of comparison: `c1cncc(C2COC3(CCN(CC4CC4)CC3)C2)c1` (stereo not drawn), cytotoxicity at 70.5 h -0.218%. Against it:
- CCCS(=O)(=O)N1CCC2(CCCC(=O)N2C)CC1 — lower, -9.65%
- O=C(C1CCOCC1)N1CCC2(CCC(C(=O)N3CCCC3)O2)CC1 (stereo not drawn) — lower, -6.14%
- CCS(=O)(=O)N1CCCC2(CCCC(=O)N2C)C1 (stereo not drawn) — lower, -9.96%
- CC(=O)N1CC2(CCN(C(=O)c3ccc4c(c3)OCCO4)CC2)C1 — higher, 20.2%
- O=C(CC(F)(F)F)N1C[C@H]2CN(CC3CC3)C(=O)[C@H]2C1 — lower, -5.1%
- CC(=O)N1CCOCC2(CCCNC2)C1 (stereo not drawn) — lower, -9.88%
- O=C(C[C@@H]1COC[C@H]2CN(Cc3ccsc3)C[C@@H]12)N1CCCC1 — lower, -3.89%
- CC(=O)N1CCC2(CC1)CN(C(=O)C1CC1)c1ccc(F)cc12 — lower, -0.352%
- CN(C)C(=O)NC1COC2(CCN(C(=O)c3ccc(Cl)cc3)CC2)C1 (stereo not drawn) — lower, -8.31%
- CC(=O)N1C[C@H]2CN(CC3CC3)C(=O)[C@H]2C1 — lower, -0.948%
- COCCN1C[C@@H]2CN(C(=O)CC3CC3)C[C@@H]2C1=O — lower, -6.26%
- COCCn1c2c(ccc1=O)CC(N)CC2 (stereo not drawn) — lower, -0.36%
- CC(C)Cn1c2c(ccc1=O)CC(N)CC2 (stereo not drawn) — lower, -3.16%
- O=C([C@H]1CCCO1)N1Cc2nccn2CC(COc2cccnc2)C1 (stereo partly drawn) — lower, -4.93%
- Cn1cc(C2CC(=O)NC23CCN(C(=O)C2CC=CC2)CC3)cn1 (stereo not drawn) — higher, 18.7%
- C1CC(CN2C[C@@H]3C[C@@H](c4nnc(C5CC5)o4)O[C@@H]3C2)C1 — higher, 27.7%
- CCC(=O)N1CCC2(CC1)CC(NC(=O)N(C)C)c1cc(C)ccc12 (stereo not drawn) — lower, -5.76%
- O=C(c1cccc(F)c1)N1CCc2ncc(Cn3cccn3)n2CC1 — lower, -11%
- O=C(NCCN1CCCC1)c1cc2c(s1)CCN2C(=O)c1ccccc1 — lower, -8.31%
- O=C(NCC1CC1)c1cc2c(s1)CCN2C(=O)c1ccc(F)cc1 — lower, -9.03%
- CCO[C@@H]1CC[C@H]2[C@H]1OCCN2S(=O)(=O)C1CC1 — lower, -11.4%
- CN1CCN(C(=O)c2cccn2C)Cc2cccnc21 — lower, -4.65%
- O=C(NCC1CC1)[C@@H]1C[C@@H]2CCN(Cc3ccccc3)C[C@H]2O1 — lower, -6.35%
- COCCN1Cc2ccccc2C2(CCN(C(=O)c3ccno3)CC2)C1 — higher, 2.49%
- O=C([C@H]1CCCO1)N1CCN(Cc2cccnc2)c2ncccc2C1 — higher, 0.581%
- Cc1ccc(N2CCCc3sc(C(=O)NCC4CCCO4)nc32)nn1 (stereo not drawn) — lower, -8.45%
- Cc1ccc2c(n1)N(Cc1cccnc1)CCN(C(=O)C1CC=CC1)C2 — lower, -9.79%
- CNC(=O)[C@H]1C[C@@H]2CN(C(=O)c3ccsc3)C[C@@H]2N1S(C)(=O)=O — lower, -10.8%
- CN(Cc1cccnc1)[C@@H]1CN(c2ncc(F)cn2)[C@@H]2CCCO[C@H]12 — lower, -11.8%
- O=C(NCC1CCCO1)c1nc2c(s1)CCCN2C(=O)C1CC1 (stereo not drawn) — lower, -9.75%
- O=C(NCC1CCCO1)c1nc2c(s1)CCCN2CC1CC1 (stereo not drawn) — lower, -2.36%
- COCC(=O)N1CCn2c(Cn3cncn3)cnc2C1C (stereo not drawn) — lower, -6.96%
- N#Cc1ccc(OC[C@]23COC[C@H]2CN(c2ncccn2)C3)nc1 — lower, -7.98%
- COCCNC(=O)C1CN(C(N)=O)Cc2ccnn2C1 (stereo not drawn) — lower, -8.89%
- c1ccc(COC[C@]23COC[C@H]2CN(c2ncccn2)C3)nc1 — lower, -11.9%
- CS(=O)(=O)N[C@@H]1COC[C@@H]2CN(Cc3ccco3)C[C@@H]21 — lower, -16.3%
- CS(=O)(=O)N1CC[C@]2(C[C@@H](OCC3CCC3)CO2)C1 — lower, -12.4%
- Cn1cc(-c2ncnc3c2CCN(C(=O)N2CCOCC2)CC3)cn1 — lower, -5.18%
- O=C(c1ccc(Cl)cc1)N1CCCn2nnc(Cn3cccn3)c2C1 — higher, 1.05%
- Cc1nccc([C@H]2C[C@@H]3CCN(S(=O)(=O)N(C)C)C[C@H]3O2)n1 — lower, -10.6%
- O=C(N1CCOCC1)N1CCc2ncnc(NC3CC3)c2CC1 — higher, 21%
- O=C(NCc1ccccc1)N1CCC2(CC(=O)N(c3ccsc3)C2)C1 (stereo not drawn) — lower, -2.89%
- COCC1CC2(CCN(C(=O)c3cccn3C)CC2)CN1C(C)C (stereo not drawn) — lower, -0.557%
- Cc1cccc(COC[C@]23COC[C@H]2CN(C(=O)c2ccsc2)C3)n1 — higher, 2.91%
- CC(=O)N1CC(=O)N(c2cnn(C)c2)CC12CCN(Cc1ccoc1)C2 (stereo not drawn) — higher, 1.31%
- O=C(N1CCOCC1)N1CCC2(CCNC2)C1 (stereo not drawn) — lower, -3.15%
- CS(=O)(=O)NCc1cncc2c1CCN(C(=O)N1CCCC1)C2 — higher, 11.1%
- CN(Cc1ccco1)Cc1cncc2c1CCN(S(C)(=O)=O)C2 — lower, -8.46%
- CC(C)CN1CCc2c(CN(C)Cc3ccco3)cncc2C1 — higher, 4.58%
- Cc1ccc(CN2CCC[C@@H]3CN(C(=O)c4ccco4)C[C@@H]32)o1 — lower, -9.58%
- O=C1CC[C@]2(CC[C@@H](NC3CCOCC3)CC2)N1Cc1ccccc1 — lower, -2.63%
- COCCN1CCC2(CC1)CN(C(=O)C1CC1)c1ccc(F)cc12 — lower, -3.73%
- CN(C)C1COC2(CCN(C(=O)c3cccc(Cl)c3)CC2)C1 (stereo not drawn) — lower, -9.63%
- O=C(C[C@H]1[C@H]2CN(Cc3ccc(F)cc3)C[C@@H]12)N1CCCC1 — lower, -3.22%
- COc1ccc(CN2C[C@@H]3[C@H](CC(=O)N4CCCC4)[C@@H]3C2)cc1 — lower, -9.32%
- CNC(=O)CN1CC[C@H]2CN(C(=O)c3ccc(C)nc3)C[C@H]2C1 — lower, -1.44%
- CC(C)CCN1CCc2[nH]nc(C(=O)N3CCCC3C)c2C1 (stereo not drawn) — lower, -6.21%
- O=C(NC1CC1)N1CCCC2(CCCCN2)C1 (stereo not drawn) — lower, -5.05%
- O=C(c1ccco1)N1C[C@@H]2OCCN(c3ncccn3)[C@@H]2C1 — lower, -13.6%
- O=C(c1ccc(O)cc1)N1C[C@@H]2OCCN(c3ncccn3)[C@@H]2C1 — lower, -10.7%
- CN(C)C(=O)N1CCC[C@]2(C(=O)N(C)C)CN(c3ccccn3)C[C@@H]2C1 — lower, -10.5%
- Cn1cc(N2C(=O)CC[C@@H]3[C@H]2CCN3Cc2nccs2)cn1 — lower, -11.9%
- CN1CC(=O)N(c2ccccc2)CC12CCN(C(=O)c1ccnnc1)C2 (stereo not drawn) — higher, 24.2%
- Cc1ccc2c(c1)C(NC(=O)N(C)C)CC21CCN(C)CC1 (stereo not drawn) — lower, -3.53%
- Cc1ccc2c(c1)C(NC(=O)N(C)C)CC21CCN(CC2CC2)CC1 (stereo not drawn) — lower, -9.46%
- O=C(NCC1CCOCC1)[C@H]1C[C@@H]2CCN(Cc3ccccc3)C[C@H]2O1 — lower, -7.17%
- Cn1cc(C2CC(=O)NC23CCN(Cc2cccc(F)c2)CC3)cn1 (stereo not drawn) — lower, -0.799%
- O=C(c1ccccn1)N1CCc2ncc(Cn3cccn3)n2CC1 — lower, -7.08%
- CC(=O)N1CCO[C@H]2[C@H](OCCCn3cccn3)CC[C@@H]21 — lower, -3.12%
- CNC(=O)[C@@H]1C[C@H]2CN(C(=O)c3ccco3)C[C@H]2N1C(C)C — lower, -10.2%
- CNC(=O)[C@H]1C[C@@H]2CN(C(=O)c3cccnc3)C[C@@H]2N1S(C)(=O)=O — lower, -11.1%
- CNC(=O)[C@H]1C[C@@H]2CN(C(=O)c3ccccn3)C[C@@H]2N1S(C)(=O)=O — lower, -7.73%
- O=C(N1CCCO1)[C@@]12CCO[C@@H]1CCN(Cc1ccc(F)cc1)C2 — lower, -1.1%
- CC1c2ncc(CNC(=O)C3CC3)n2CCN1Cc1ccsc1 (stereo not drawn) — lower, -1.59%
- Cc1ccc(CN2C[C@@H]3COC[C@H](NS(C)(=O)=O)[C@@H]3C2)s1 — lower, -10.6%
- O=C(c1n[nH]c2c1CCN(Cc1nccs1)C2)N1CCCC1 — lower, -7.39%
- CC(=O)N1CC(=O)N(c2cnn(C)c2)CC12CCN(CC1CC1)C2 (stereo not drawn) — higher, 1.31%
- COCCN1C[C@H]2CC[C@@]3(N=C(C)N(CC4CC4)C3=O)[C@H]2C1 — lower, -2.1%
- CC(C)CNC(=O)[C@H]1CCS(=O)(=O)[C@@H]2CN(Cc3ccc(Cl)cc3)C[C@H]12 — higher, 3.8%
- COCC1CC2(CCN(C(=O)c3cc(C)oc3C)CC2)CN1C(C)C (stereo not drawn) — higher, 0.799%
- COCC1Cn2nnc(-c3cnn(C)c3)c2CN1Cc1ccco1 (stereo not drawn) — higher, 5.04%
- c1cc(CN2CCC3(CC2)CC(N2CCCC2)CO3)co1 (stereo not drawn) — lower, -5.63%
- CN(C)C(=O)[C@]12CCCN(CC3CC3)C[C@H]1CN(c1ccccn1)C2 — lower, -8.29%
- COCC1c2c(cnn2CC2CC2)CCN1Cc1cc(C)on1 (stereo not drawn) — lower, -12.7%
- c1cc(CN2CCO[C@H]3[C@H](OCCN4CCCC4)CC[C@@H]32)co1 — lower, -14.8%
- CC(C)N1CC[C@@H]2OC[C@H](C(=O)Nc3cccnc3)C[C@@H]2C1 — higher, 25.1%
- Cn1cccc1C(=O)N1CCN(Cc2cccnc2)c2ncccc2C1 — lower, -8.24%
- c1cnn(CCCO[C@@H]2CC[C@H]3[C@H]2OCCN3CC2CCOCC2)c1 — lower, -5.34%
- O=C(N1CCCO1)[C@@]12CCO[C@@H]1CCN(Cc1ccccn1)C2 — higher, 2.18%
- O=C(c1ccnnc1)N1CCN(Cc2cccnc2)c2ncccc2C1 — lower, -8.62%
- Cc1nc(CN2C(=O)CCC23CCN(Cc2ccoc2)CC3)cs1 — lower, -4.67%
- CN(C)CCOCc1nnc2n1CCN(Cc1cccs1)CC2 — higher, 1.78%
- COc1cc(N2C[C@@H]3COC[C@]3(COc3ccccn3)C2)ncn1 — lower, -11.5%
- Cc1cccc(CN2C[C@@H]3COC[C@H](NS(C)(=O)=O)[C@@H]3C2)n1 — lower, -15.5%
- O=C(NCC1CC1)C1CN(c2ncccn2)Cc2ccnn2C1 (stereo not drawn) — lower, -14.5%
- O=S1(=O)CCN(Cc2cccnc2)[C@H]2CCN(c3ncccn3)CC[C@H]21 — higher, 19.6%
- CN(C)CC(=O)N1CCOC2(CCCN(c3ncccc3F)C2)C1 (stereo not drawn) — higher, 4.23%
- CN(Cc1ccncc1)C1COC2(CCN(Cc3cccs3)CC2)C1 (stereo not drawn) — lower, -12.7%
- Cc1nc(CN2CCC3(CCCN(Cc4cccnc4)C3)C2=O)cs1 (stereo not drawn) — higher, 26.7%
- CNC(=O)CN1CCOCC2(CCCN(Cc3cccnc3)C2)C1 (stereo not drawn) — higher, 4.24%
- CN(Cc1cccnc1)[C@@H]1CN(Cc2cnn(C)c2)[C@@H]2CCCO[C@H]12 — lower, -6.78%
- CN(Cc1cccnc1)[C@@H]1CN(Cc2nccn2C)[C@@H]2CCCO[C@H]12 — lower, -4.78%
